Results as given in patent US10500286B2, “CCK2R-drug conjugates” (priority 2015, dated 2019).
Read-outs that look alike come from different tables or passages of the source.

Key:
HEK-CCK2R tumor cells = test: Antitumor activity in HEK-CCK2R tumor model; type: in vivo, mice; conditions: 2 μmol/kg
Description: (§1) Female Balb/c nu/nu mice were fed ad libitum with 2918 irradiated Teklad Global 18% Rodent Diet for the duration of the experiment. HEK-CCK2R tumor cells were inoculated subcutaneously at the right flank of each mouse. Mice were dosed through the lateral tail vein under sterile conditions in a volume of 200 μL of phosphate-buffered saline (PBS).
Growth of each s.c. tumor was followed by measuring the tumor two times per week. Tumors were measured in two perpendicular directions using Vernier calipers, and their volumes were calculated as 0.5×L×W^2, where L=measurement of longest axis in mm and W=measurement of axis perpendicular to L in mm.
Treatment with 2 μmol/kg of EC1947 (Sulfated CCK8-Tubulysin B SMDC), three times a week for two weeks produced maximal anti-tumor activity with 80% cures and 20% CR's. In comparison, EC1868 (CCK8-PEG3-Tubulysin B SMDC) and EC1873 (CCK8-PEG12-Tubulysin B SMDC) at the same dose and schedule produced 100% CR's and 80% CR's/20% PR's, respectively.

[1] = Body weight of mice bearing subcutaneous HEK-CCK2R tumors during treatment; type: in vivo; conditions: 2 μmol/kg, TIW×2 weeks
Description: (▪) control; (▴) EC1873; (●) EC1868; (∘) EC1947.
as §1

HEK-CCK2R cells [2] = type: cell-based; conditions: 2 h pulse at 37 C, chase up to 72 h, [3H]thymidine incorporation relative to untreated controls
Description: (§2) CCK2R-positive HEK-CCK2R cells were seeded in 12-well Falcon plates and allowed to form nearly confluent monolayers overnight in RPMI/HIFCS. Each well then received increasing concentrations of CCK2R targeted conjugates (n=4). Cells were pulsed for 2 h at 37° C., rinsed with medium, and then chased in fresh medium up to 72 h. Spent medium was aspirated and replaced with medium containing [^3H]thymidine. Following a 2 h incubation, cells were washed with PBS and then treated with 5% trichloroacetic acid. The trichloroacetic acid was aspirated and cells were solubilized in 0.25 N sodium hydroxide. Each solubilized sample were transferred to scintillation vials containing Ecolume scintillation cocktail and counted in a liquid scintillation counter. Final results were expressed as the percentage of [^3H]thymidine incorporation relative to untreated controls and IC50 values calculated using GraphPad Prism software.

HEK-CCK2R cells [3] = test: In vitro study of conjugates versus competitor, [3H]thymidine incorporation; type: cell-based
Description: as §2, with “(EC1812 or EC1868)+/−10 μM of CCK2R binding competitor (Re-EC1786 or Re-EC1825).” for “(n=4).”

[4] = three times a week for two weeks

| Compound | CR's (HEK-CCK2R tumor cells; [4]) [%] | cures (HEK-CCK2R tumor cells; [4]) [%] | weight loss [1] | IC50 (HEK-CCK2R cells [2]) [nM] | CR, number of animals, second figure of {PR, CR, cure} (HEK-CCK2R tumor cells; TIW×2 weeks, n=5) | cytotoxic activity on HEK-CCK2R, in words (HEK-CCK2R cells [3]) | PR's (HEK-CCK2R tumor cells; [4]) [%] | IC50 (HEK-CCK2R cells [3]; + 10 μM competitor Re-EC1786, read-out: IC50 in presence of Re-EC1786) [nM] | IC50 (HEK-CCK2R cells [3]; conjugate alone, read-out: IC50) [nM] | competition of activity by excess Re-EC1786, in words (HEK-CCK2R cells [3]; excess Re-EC1786) |
| --- | --- | --- | --- | --- | --- | --- | --- | --- | --- | --- |
| CCCC(=O)OCN(C(=O)[C@@H](NC(=O)[C@H]1CCCCN1C)C(C)CC)[C@H](C[C@@H](OC(C)=O)c1nc(C(=O)N[C@@H](Cc2ccc(O)cc2)C[C@H](C)C(=O)NNC(=O)OCSSC[C@H](NC(=O)[C@H](CC(=O)O)NC(=O)[C@@H](N)CNC(C)=O)C(=O)NCCOCCOCCC(=O)N[C@@H](CC(=O)O)C(=O)N[C@@H](Cc2ccc(OS(=O)(=O)O)cc2)C(=O)N[C@@H](CCSC)C(=O)NCC(=O)N[C@@H](Cc2c[nH]c3ccccc23)C(=O)N[C@@H](CCSC)C(=O)N[C@@H](CC(=O)O)C(=O)N[C@@H](Cc2ccccc2)C(N)=O)cs1)C(C)C (some centres unmarked) [EC1947] | 20 | 80 | do not induce weight loss | 0.9 |  |  |  |  |  |  |
| CCCC(=O)OCN(C(=O)[C@@H](NC(=O)[C@H]1CCCCN1C)C(C)CC)[C@H](C[C@@H](OC(C)=O)c1nc(C(=O)N[C@@H](Cc2ccc(O)cc2)C[C@H](C)C(=O)NNC(=O)OCCSSC[C@H](NC(=O)[C@H](CC(=O)O)NC(=O)[C@@H](N)CNC(C)=O)C(=O)NCCOCCOCCOCCC(=O)N[C@@H](CC(=O)O)C(=O)N[C@@H](Cc2ccc(O)cc2)C(=O)N[C@@H](CCSC)C(=O)NCC(=O)N[C@@H](Cc2c[nH]c3ccccc23)C(=O)N[C@@H](CCSC)C(=O)N[C@@H](CC(=O)O)C(=O)N[C@@H](Cc2ccccc2)C(N)=O)cs1)C(C)C (some centres unmarked) [EC1868] | 100 |  | do not induce weight loss | 0.2 | 5 | potent, competeable cytotoxic activity |  |  |  |  |
| CCCC(=O)OCN(C(=O)[C@@H](NC(=O)[C@H]1CCCCN1C)C(C)CC)[C@H](C[C@@H](OC(C)=O)c1nc(C(=O)N[C@@H](Cc2ccc(O)cc2)C[C@H](C)C(=O)NNC(=O)OCCSSC[C@H](NC(=O)[C@H](CC(=O)O)NC(=O)[C@@H](N)CNC(C)=O)C(=O)NCCOCCOCCOCCOCCOCCOCCOCCOCCOCCOCCOCCOCCC(=O)N[C@@H](CC(=O)O)C(=O)N[C@@H](Cc2ccc(O)cc2)C(=O)N[C@@H](CCSC)C(=O)NCC(=O)N[C@@H](Cc2c[nH]c3ccccc23)C(=O)N[C@@H](CCSC)C(=O)N[C@@H](CC(=O)O)C(=O)N[C@@H](Cc2ccccc2)C(N)=O)cs1)C(C)C (some centres unmarked) [EC1873] | 80 |  | do not induce weight loss | 2.8 |  |  | 20 |  |  |  |
| CCCC(=O)OCN(C(=O)[C@@H](NC(=O)[C@H]1CCCCN1C)C(C)CC)[C@H](C[C@@H](OC(C)=O)c1nc(C(=O)N[C@@H](Cc2ccc(O)cc2)C[C@H](C)C(=O)NNC(=O)OCCSSC[C@H](NC(=O)[C@H](CCC(=O)NC[C@@H](O)[C@H](O)[C@@H](O)[C@@H](O)CO)NC(=O)[C@H](CCC(=O)O)NC(=O)[C@H](CCC(=O)NC[C@@H](O)[C@H](O)[C@@H](O)[C@@H](O)CO)NC(=O)[C@H](CCC(=O)O)NC(=O)CCCCCCCNC(=O)c2cccc(NC(=O)N[C@@H]3CN(C4CCCCC4)c4ccccc4N(CC(=O)C(C)(C)C)C3=O)c2)C(=O)O)cs1)C(C)C (some centres unmarked) [EC1812] |  |  |  |  |  | relatively inactive |  | 262 | 225 | not competeable |
